Experiments:
468 known kinases = test: Kinome scan (binding)
Source text: Induction of the unfolded protein response (UPR) is a known biological response to SCD1 inhibition in tumor cells. […] The addition of exogenous OA was sufficient to reverse the activation of ATF6 (Figure 4b). Moreover, exogenous OA inhibited SSI-(1-4) mediated upregulation of the UPR markers BiP (heat shock 70 kDa protein) and CHOP (damage inducible transcript 3) protein levels in both A498 and ACHN cells (Figure 4c). Collectively these findings confirm that SSI-(1-4) reliably recapitulates the biological responses observed in tumor cells treated with known SCD1 inhibitors. […] Thus, SSI-4 is not predicted to have any major off-target effects through kinase inhibition (Supplementary Figures 7 and 8). […]
of PLS factors. T-value filter (t-value < 2.0) was used to eliminate independent variables overly sensitive to incremental changes from the training set. For structural components, both atom-based and pharmacophore features based were examined.
The regression with m PLS factors, fitted to activities is given as: […]
i =1 , where m = number of PLS factors, b is regression coefficient, vector y represents activity values in the training set. […]
A final Z-filtering mechanism was applied to reduce the dataset to a few select compounds for synthesis and experimental screening by using combined normalized scoring. The final Z-score for each compound was determined as: […]

[1] = system: ACHN ccRCC pulmonary metastasis; test: ACHN pulmonary metastasis model; assay type: in vivo, athymic nude mice; conditions: 180 mg/kg in chow, 28 days
Method: SCD1 expression correlates with poor cancer patient outcomes as evidenced by decreased survival in multiple cancers including gastric, lung, ovarian and renal cell carcinoma (Figure 5a-5b, Supplementary Figure 9a-9b). […] Our findings in thyroid carcinoma similarly present discordancy between tumor response to SCD1 inhibitors and SCD1 expression. SSI-4 was tested in vivo for anti-tumorigenic activity.
Figure 5 SSI-4 attenuates tumor progression Kaplan Meier survival analysis of indicated subtypes of (a) gastric and (b) lung cancer patients sorted into high versus low SCD1 mRNA expression, for multiple disease subtypes. Patient risk assessment at indicated mean follow-up is shown. […] (h) Tumor burden of ACHN pulmonary metastasis in response to SSI-4 treatment (180mg/kg) measured by ex vivo bioluminescent flux, given in photons/second (n=5 per group). ([…]) Tumor burden of ACHN pulmonary metastasis as determined by H&E staining of lungs from (h).
ACHN cells were infected with pSIN Luc Ub Emerald GFP lentivirus construct, a kind gift from Dr. Yasuhiro Ikeda (Mayo Clinic). […] Lesion width was calculated as the mean of all nodules measured (7-12 per mouse), identified by H&E staining.
A498 cells were injected subcutaneously in the flank of athymic nude mice at 1x10^6/mouse. […] Tumor burden was measured using calipers. […]

ACHN = test: Proliferation dose-response IC50, ACHN; assay type: cell-based; conditions: Homo sapiens, proliferative IC50, linear regression modeling of dose-response
Method: (§1) Error bars indicate standard deviation for n=2 replicates. […] To evaluate inhibition of SCD1 by these molecules, we used LC/MS to quantify changes in SCD1-catalyzed conversion of stearoyl-CoA to oleoyl-CoA in response to drug treatments in vitro using SCD1 protein extracted from murine liver (Figure 3c, Supplementary Figure 2g). […] Synthesis routes and spectral data including NMR and MS are also provided (Supplementary Figures 3-6).
(§2) Cells were seeded at 5,000 cells/well in clear-bottom 96-well plates in triplicate. Drug treatment was applied at 1:1000 in reduced serum conditions (3%). […] Alternatively, cells were plated 2x10^5/well in 12-well plates (Genesee Scientific) in triplicate prior to drug treatment. After 120-hour treatment, cell number was established using a Coulter Particle Counter (Beckman). Oleic acid-albumin (Sigma Aldrich) was added to media at 5µM, and was applied adjuvant to drug treatment. Drug stocks were prepared in DMSO (Sigma) at 1000x. IC50 dosing per cell line was calculated using CalcuSyn analytical software.

Caki2 = test: Proliferation dose-response IC50, Caki2; assay type: cell-based; conditions: Homo sapiens, CAKI-2; proliferative IC50, linear regression modeling of dose-response
Method: as §1, §2

A498 = test: Proliferation dose-response IC50, A498; assay type: cell-based; conditions: Homo sapiens, proliferative IC50, linear regression modeling of dose-response
Method: as §1, §2

- number of 403 non-mutant kinases bound (468 known kinases; 10 nM): none
- number of 403 non-mutant kinases bound (468 known kinases; 100 nM, the kinase bound is CDKL2): 1
- IC50 (ACHN): 0.003 µM
SMILES: CNC(=O)c1ccnc(NC(=O)N2CCC(Oc3ccccc3Cl)CC2)c1 [SSI-4]
- pulmonary metastasis formation of ACHN ccRCC [1]: reduced
- IC50 (Caki2): 0.009 µM
- IC50 (A498): 0.009 µM

Source: article PMC5787466, “Accelerated bottom-up drug design platform enables the discovery of novel stearoyl-CoA desaturase 1 inhibitors for cancer therapy” (Oncotarget, 2017)
